These results are taken from patent publication US20260098017A1, “NOVEL AROMATIC RING DERIVATIVE CONTAINING AMIDE SUBSTITUTION AND USE THEREOF” (TIANJIN PHARMACEUTICAL BIOTECHNOLOGY CO., LTD., priority 2022, published 2026).

The target in this experiment is Ba/F3 cell line expressing TYK2 (Homo sapiens, UniProt P29597, cells depend on it, form not given). Description: In vitro cellular inhibition assay (Ba/F3 cell proliferation, CellTiter-Glo). It is filed as cell-based. The settings on record: read-out: IC50 (the source's name). How it is done: The inhibitory effect of the compounds of formula (I) according to the present invention on the TYK2 signaling pathway in cells was assessed using the following method:
Instrumentation: SpectraMax Paradigm reader.
Method: in this experiment, a Ba/F3 cell line expressing TYK2 was employed to assess the effect of the compounds on cell proliferation inhibition by measuring their effects on cell activity in vitro.
Procedure: a CellTiter-Glo buffer was thawed and placed aside till room temperature. A CellTiter-Glo substrate was placed aside till room temperature and dissolved with the buffer to prepare a CellTiter-Glo working solution. To a 96-well flat bottom transparent drug plate, 98 μL of cell culture medium and 2 μL of gradient diluted compound solution were added. The drug plate was placed aside for 10 min, and then 50 μL of the CellTiter-Glo working solution was added. The drug plate was subsequently shaken on an orbital shaker for 2 min and placed aside at room temperature for an additional 10 min. Finally, the luminescence signal was measured on the SpectraMax Paradigm reader.
Data Analysis: the cell proliferation inhibition rate data were processed using the following formula:
Inhibition Rate (Inh %)=100−(RLUDrug−RLUMin)/(RLUMax−RLUMin)×100%.
The inhibition rates of compounds with different concentrations were calculated in EXCEL, and then GraphPad Prism software was employed to plot inhibition rate curve and calculate relevant parameters, including maximum and minimum cell inhibition rates, IC50 values.
(In ATP-based viability assays light output follows the ATP content of the culture.)
Regarding `[2H]C([2H])([2H])NC(=O)c1cnc(NC(=O)C2CC2)cc1Nc1cccc(C(=O)Nc2ccc(C(C)C)cc2)c1OC` [Example 72], the GI50 was in the range of 5 to 10 nM.
On to `[2H]C([2H])([2H])NC(=O)c1nnc(NC(=O)C2CC2)cc1Nc1cccc(C(=O)Nc2ccc(C)nc2)c1OC` [Example 44], for which the GI50 fell in the range of 5 to 10 nM.
In the case of `[2H]C([2H])([2H])NC(=O)c1cnc(NC(=O)C2CC2)cc1Nc1cccc(C(=O)Nc2ccncc2)c1OC` [Example 102], the GI50 is 5 to 10 nM.
Turning to `[2H]C([2H])([2H])NC(=O)c1cnc(NC(=O)C2CC2)cc1Nc1cccc(C(=O)Nc2ccc(C3CC3)c(C)c2)c1OC` [Example 78], the GI50 lay within 5 to 10 nM.
For `[2H]C([2H])([2H])NC(=O)c1nnc(NC(=O)C2CC2)cc1Nc1cccc(C(=O)Nc2cncnc2)c1OC` [Example 52], the GI50 is 5 to 10 nM.
Regarding `[2H]C([2H])([2H])NC(=O)c1nnc(NC(=O)C2CC2)cc1Nc1cccc(C(=O)NC(C)(C)C)c1OC` [Example 105], the GI50 was 5 to 10 nM.
Turning to `[2H]C([2H])([2H])NC(=O)c1nnc(NC(=O)C2CC2)cc1Nc1cccc(C(=O)Nc2ncccn2)c1OC` [Example 51], the GI50 lay within 5 to 10 nM.
Turning to `[2H]C([2H])([2H])NC(=O)c1cnc(NC(=O)C2CC2)cc1Nc1cccc(C(=O)Nc2ccc(C(C)(C)C)c(C)c2)c1OC` [Example 80], the GI50 lay in the range of 5 to 10 nM.
As to `[2H]C([2H])([2H])NC(=O)c1nnc(NC(=O)C2CC2)cc1Nc1cccc(C(=O)Nc2cccc(OC)c2)c1OC` [Example 14], the GI50 lay within 5 to 10 nM.
With `[2H]C([2H])([2H])NC(=O)c1cnc(NC(=O)C2CC2)cc1Nc1cccc(C(=O)Nc2ccc(OC)cc2)c1OC` [Example 76], the GI50 lay within 5 to 10 nM.
With `[2H]C([2H])([2H])NC(=O)c1cnc(NC(=O)C2CC2)cc1Nc1cccc(C(=O)Nc2ccc(C)cn2)c1OC` [Example 95], the GI50 lay within 5 to 10 nM.
For the molecule `[2H]C([2H])([2H])NC(=O)c1nnc(NC(=O)C2CC2)cc1Nc1cccc(C(=O)Nc2ccc(C3CC3)c(C)c2)c1OC` [Example 26], the GI50 is 5 to 10 nM.
For `[2H]C([2H])([2H])NC(=O)c1cnc(NC(=O)C2CC2)cc1Nc1cccc(C(=O)Nc2ccn(C)n2)c1OC` [Example 85], the GI50 was 5 to 10 nM.
Turning to `[2H]C([2H])([2H])NC(=O)c1cnc(NC(=O)C2CC2)cc1Nc1cccc(C(=O)Nc2cnc(F)nc2)c1OC` [Example 99], the GI50 was in the range of 5 to 10 nM.
With `[2H]C([2H])([2H])NC(=O)c1cnc(NC(=O)C2CC2)cc1Nc1cccc(C(=O)Nc2ccc(CC)cc2)c1OC` [Example 70], the GI50 was 5 to 10 nM.
Consider `[2H]C([2H])([2H])NC(=O)c1cnc(NC(=O)C2CC2)cc1Nc1cccc(C(=O)Nc2cccc(C(F)(F)F)c2)c1OC` [Example 64], for which the GI50 fell in the range of 5 to 10 nM.
Take `[2H]C([2H])([2H])NC(=O)c1nnc(NC(=O)C2CC2)cc1Nc1cccc(C(=O)Nc2ccn(C)n2)c1OC` [Example 33]: the GI50 fell in the range of 5 to 10 nM.
For the molecule `[2H]C([2H])([2H])NC(=O)c1nnc(NC(=O)C2CC2)cc1Nc1cccc(C(=O)Nc2ccc(C(C)(C)C)cc2)c1OC` [Example 21], the GI50 lay in the range of 5 to 10 nM.
In the case of `[2H]C([2H])([2H])NC(=O)c1nnc(NC(=O)C2CC2)cc1Nc1cccc(C(=O)Nc2cccc(C#N)c2)c1OC` [Example 15], the GI50 fell in the range of 5 to 10 nM.
Take `[2H]C([2H])([2H])NC(=O)c1cnc(NC(=O)C2CC2)cc1Nc1cccc(C(=O)Nc2cccc(OC)c2)c1OC` [Example 66]: the GI50 was in the range of 5 to 10 nM.
In the case of `[2H]C([2H])([2H])NC(=O)c1cnc(NC(=O)C2CC2)cc1Nc1cccc(C(=O)Nc2ccc(C(C)C)c(C)c2)c1OC` [Example 79], the GI50 fell in the range of 5 to 10 nM.
Take `[2H]C([2H])([2H])NC(=O)c1cnc(NC(=O)C2CC2)cc1Nc1cccc(C(=O)Nc2ccc(C3CC3)cc2)c1OC` [Example 71]: the GI50 was in the range of 5 to 10 nM.
Under `[2H]C([2H])([2H])NC(=O)c1nnc(NC(=O)C2CC2)cc1Nc1cccc(C(=O)Nc2cccc(F)c2)c1OC` [Example 6] stands 5 to 10 nM; under `[2H]C([2H])([2H])NC(=O)c1nnc(NC(=O)C2CC2)cc1Nc1cccc(C(=O)Nc2cnc(F)nc2)c1OC` [Example 47], 5 to 10 nM.
